Tested on: 519858-162-T-J1-PDC complex spheroid growth, % test/control
Test: Anticancer human tumor 519858-162-T-J1-PDC patient-derived colon adenocarcinoma cell line growth inhibition [Asc]
Conditions: for IC50: curve of first compound; for viability, T/C: stronger effect = lower value
Summary of the method: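 Complex solid-tumor spheroids incorporating human endothelial and mesenchymal stem cells received single agents or combinations over half-log dilution ranges anchored to clinical Cmax.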
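Also: seven day drug exposure begun three days after spheroid seeding.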
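For viability, T/C in this document: 100% = DMSO vehicle wells and lower values mean less viable spheroid.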

With `Cc1nc(N2CCC3(CC2)COC(C)C3N)c(CO)nc1Sc1ccnc(N)c1Cl` (configuration not stated) + CCN1C(C(=O)NC23CCC(C(=O)O)(CC2)CC3)C(c2cccc(Cl)c2F)C2(C(=O)Nc3cc(Cl)ccc32)C12CCCCC2 the IC50 (second compound 0.00949 µM) was 0.578 µM, the IC50 (second compound 0.03 µM) was over 3 µM and the IC50 (second compound 0.0949 µM) was over 3 µM. The IC50 (second compound 0.3 µM) was over 3 µM, the IC50 (second compound 0.949 µM) was over 3 µM and the IC50 (second compound 3 µM) was over 3 µM. The viability, T/C (second compound 0.00949 µM, first compound 0.00949 µM) was 87%, the viability, T/C (second compound 0.00949 µM, first compound 0.03 µM) was 91.7% and the viability, T/C (second compound 0.00949 µM, first compound 0.0949 µM) was 111%. For the same compound, the viability, T/C (second compound 0.00949 µM, first compound 0.3 µM) was 57.3%, the viability, T/C (second compound 0.00949 µM, first compound 0.949 µM) was 43.6% and the viability, T/C (second compound 0.00949 µM, first compound 3 µM) was 45.3%. The viability, T/C (second compound 0.03 µM, first compound 0.00949 µM) was 85.3%, the viability, T/C (second compound 0.03 µM, first compound 0.03 µM) was 67% and the viability, T/C (second compound 0.03 µM, first compound 0.0949 µM) was 101%. For the same compound, the viability, T/C (second compound 0.03 µM, first compound 0.3 µM) was 85.6%, the viability, T/C (second compound 0.03 µM, first compound 0.949 µM) was 96% and the viability, T/C (second compound 0.03 µM, first compound 3 µM) was 63.3%. For the same compound, the viability, T/C (second compound 0.0949 µM, first compound 0.00949 µM) was 63.2%, the viability, T/C (second compound 0.0949 µM, first compound 0.03 µM) was 110% and the viability, T/C (second compound 0.0949 µM, first compound 0.0949 µM) was 70.5%. The viability, T/C (second compound 0.0949 µM, first compound 0.3 µM) was 66.6%, the viability, T/C (second compound 0.0949 µM, first compound 0.949 µM) was 73.7% and the viability, T/C (second compound 0.0949 µM, first compound 3 µM) was 57.5%. The viability, T/C (second compound 0.3 µM, first compound 0.00949 µM) was 119%, the viability, T/C (second compound 0.3 µM, first compound 0.03 µM) was 71% and the viability, T/C (second compound 0.3 µM, first compound 0.0949 µM) was 54.5%. The viability, T/C (second compound 0.3 µM, first compound 0.3 µM) was 80.6%, the viability, T/C (second compound 0.3 µM, first compound 0.949 µM) was 47.6% and the viability, T/C (second compound 0.3 µM, first compound 3 µM) was 52.5%. The viability, T/C (second compound 0.949 µM, first compound 0.00949 µM) was 67.6%, the viability, T/C (second compound 0.949 µM, first compound 0.03 µM) was 66.8% and the viability, T/C (second compound 0.949 µM, first compound 0.0949 µM) was 83.1%. For the same compound, the viability, T/C (second compound 0.949 µM, first compound 0.3 µM) was 47.4%, the viability, T/C (second compound 0.949 µM, first compound 0.949 µM) was 73.5% and the viability, T/C (second compound 0.949 µM, first compound 3 µM) was 59.2%. The viability, T/C (second compound 3 µM, first compound 0.00949 µM) was 69.5%, the viability, T/C (second compound 3 µM, first compound 0.03 µM) was 92.5% and the viability, T/C (second compound 3 µM, first compound 0.0949 µM) was 77.2%. For the same compound, the viability, T/C (second compound 3 µM, first compound 0.3 µM) was 73.5%, the viability, T/C (second compound 3 µM, first compound 0.949 µM) was 67% and the viability, T/C (second compound 3 µM, first compound 3 µM) was 72.5%.
